Data taken from ChEMBL document CHEMBL1128187, “1 alpha,25-dihydroxyvitamin D3 analogs featuring aromatic and heteroaromatic rings: design, synthesis, and preliminary biological testing” (1995).

Columns and labels:
Type in all cases: functional
Rattus norvegicus [1] = species on record: Rattus norvegicus; assay: Patch clamp determination of calcium current in rat Osteosarcoma cells at 0.5 nM
Rattus norvegicus [2] = species on record: Rattus norvegicus; assay: Patch clamp determination of calcium current in rat Osteosarcoma cells at 5.0 nM
Rattus norvegicus [3] = species on record: Rattus norvegicus; assay: Patch clamp determination of calcium current in rat Osteosarcoma cells at 50.0 nM

SMILES | Ca2+ current (Rattus norvegicus [1]) [mV] | Ca2+ current (Rattus norvegicus [2]) [mV] | Ca2+ current (Rattus norvegicus [3]) [mV]
C[C@H](CCCC(C)(C)O)[C@H]1CC[C@H]2C(c3ccc(CO)c(CO)c3)=CCC[C@]12C | -0.08 | 1.45 | 7.03
C[C@@H](COCCCC(C)(C)O)[C@H]1CC[C@H]2C(c3ccc(CO)c(CO)c3)=CCC[C@]12C | 0.02 | 0.15 | 0.63
C=C1/C(=C\C=C2/CCC[C@]3(C)[C@@H]([C@H](C)CCCC(C)(C)O)CC[C@@H]23)C[C@@H](O)C[C@@H]1O [CALCITRIOL] | 5.73 | 9.79 | 10.2
